Source: patent US20260183320A1, “METHOD FOR TREATING CANCER BY COMBINING ALKYLATING AGENT PRODRUG AND CELL CYCLE INHIBITOR” (ASCENTAWITS PHARMACEUTICALS, LTD., priority 2022, published 2026)
pIC50: −log10 of the molar value. Entries after “also recorded” stand apart in the source; their conditions may differ. Read-outs that look alike come from different tables or passages of the source.

Key:
[1] = system: p53-deficient (HT29) cell line; assay: CTG cell proliferation assay, HT29 cell line; assay type: cell-based; conditions: for pIC50: read-out: IC50
Description: (§1) Each CTG cell proliferation assay included the steps as follows: • 1) An H460 or HT29 cell suspension was added to a 96-well plate at 100 μL per well so that each well contained 2000 or 10000 cells. • 2) The cells were incubated overnight at 37° C. in an incubator with 5% CO2. • 3) Treatment with Compounds
(§2) Combination therapy: 1 μL of adavosertib (at four concentrations), AZD7762 (at four concentrations), palbociclib (at four concentrations) or ceralasertib (at three concentrations) was added to each well and shaken gently until homogeneous mixing.
(§3) 7) Chemiluminescence was read for 1000 ms on a multimode microplate reader. • 8) IC50 (half-maximal inhibitory concentration) values of the compounds were calculated using the GraphPad Prism 5 software. 1.

[2] = system: wild-type p53-expressing (H460) cell line; assay: CTG cell proliferation assay, H460 cell line; assay type: cell-based; conditions: for pIC50: Homo sapiens, read-out: IC50
Description: as §1, §2, §3

[3] = HT29 (p53-deficient), various concentrations, also low
[4] = H460 (wild-type p53), both drugs at low concentrations

## C[C@H](OP(=O)(N1CC1)N1CC1)c1ccc([N+](=O)[O-])c(Oc2cccc(C(=O)N(C)C)c2)c1 [AST-3424, (S)-1-(3-(3-N,N-dimethylaminocarbonyl)phenoxyl-4-nitrophenyl)-1-ethyl-N,N′-bis(ethylene)phosphoramidate]
[1]; HT29 (p53-deficient), various concentrations
  additive cytotoxic effect in combination therapy with ceralasertib: very significant additive effects; also recorded: significant additive cytotoxic effects
[1]; [3]
  additive cytotoxic effect in combination therapy with AZD7762: significant additive cytotoxic effects
  additive cytotoxic effect in combination therapy with adavosertib: significant additive cytotoxic effects
  additive cytotoxic effect in combination therapy with palbociclib: significant additive cytotoxic effects
[1]; HT29, 0.44 μM ceralasertib 2 h-pretreatment + AST-3424-72 h-cotreatment
  Ratio single/combo: 37.56
[1]; HT29, 0.44 μM ceralasertib + AST-3424 72 h, simultaneously
  Ratio single/combo: 51.53
[1]; HT29, AST-3424-2 h-pretreatment + 0.44 μM ceralasertib-72 h-cotreatment
  Ratio single/combo: 52.44
[1]; HT29, IC50 monotherapy / IC50 with 50 nM palbociclib
  Ratio single/combo: 1.17
[1]; HT29, IC50 monotherapy / IC50 with 100 nM AZD7762
  Ratio single/combo: 65.70
[1]; HT29, IC50 monotherapy / IC50 with 100 nM adavosertib
  Ratio single/combo: 40.17
[1]; HT29, IC50 monotherapy / IC50 with 130 nM AZD7762
  Ratio single/combo: 70.63
[1]; HT29, IC50 monotherapy / IC50 with 130 nM adavosertib
  Ratio single/combo: 55.39
[1]; HT29, IC50 monotherapy / IC50 with 160 nM AZD7762
  Ratio single/combo: 71.82
[1]; HT29, IC50 monotherapy / IC50 with 160 nM adavosertib
  Ratio single/combo: 70.63
[1]; HT29, IC50 monotherapy / IC50 with 1000 nM palbociclib
  Ratio single/combo: 1.92
[1]; HT29, IC50 monotherapy / IC50 with 5000 nM palbociclib
  Ratio single/combo: 2.34
[1]; HT29, different orders of adding AST-3424 and 0.44 μM ceralasertib
  influence of the order of adding drugs on additive cytotoxic effect with ceralasertib: did not show any differences
[1]; HT29, monotherapy, 72 h
  pIC50: 7.13
[1]; Homo sapiens, HT-29, 72 h, HT29, 0.44 μM ceralasertib + AST-3424 72 h, simultaneously
  pIC50: 8.76
[1]; Homo sapiens, HT-29, 72 h, HT29, monotherapy, 72 h
  pIC50: 7.07
[1]; Homo sapiens, HT-29, HT29, 0.44 μM ceralasertib 2 h-pretreatment + AST-3424-72 h-cotreatment
  pIC50: 8.63
[1]; Homo sapiens, HT-29, HT29, AST-3424-2 h-pretreatment + 0.44 μM ceralasertib-72 h-cotreatment
  pIC50: 8.77
[1]; Homo sapiens, HT-29, HT29, monotherapy, first assay
  pIC50: 6.89
[1]; Homo sapiens, HT-29, HT29, monotherapy, order-of-addition assay
  pIC50: 7.05
[1]; Homo sapiens, HT-29, HT29, monotherapy, second assay
  pIC50: 7.00
[1]; Homo sapiens, HT-29, HT29, with 0.04 μM ceralasertib, first assay
  pIC50: 8.49
[1]; Homo sapiens, HT-29, HT29, with 0.04 μM ceralasertib, second assay
  pIC50: 8.79
[1]; Homo sapiens, HT-29, HT29, with 50 nM palbociclib (2 h pretreatment), 72 h
  pIC50: 7.20
[1]; Homo sapiens, HT-29, HT29, with 100 nM AZD7762 (2 h pretreatment), 72 h
  pIC50: 8.89
[1]; Homo sapiens, HT-29, HT29, with 100 nM adavosertib (2 h pretreatment), 72 h
  pIC50: 8.68
[1]; Homo sapiens, HT-29, HT29, with 130 nM AZD7762 (2 h pretreatment), 72 h
  pIC50: 8.92
[1]; Homo sapiens, HT-29, HT29, with 130 nM adavosertib (2 h pretreatment), 72 h
  pIC50: 8.82
[1]; Homo sapiens, HT-29, HT29, with 160 nM AZD7762 (2 h pretreatment), 72 h
  pIC50: 8.93
[1]; Homo sapiens, HT-29, HT29, with 160 nM adavosertib (2 h pretreatment), 72 h
  pIC50: 8.92
[1]; Homo sapiens, HT-29, HT29, with 1000 nM palbociclib (2 h pretreatment), 72 h
  pIC50: 7.42
[1]; Homo sapiens, HT-29, HT29, with 1.3 μM ceralasertib, first assay
  pIC50: 8.85
[1]; Homo sapiens, HT-29, HT29, with 1.3 μM ceralasertib, second assay
  pIC50: 8.92
[1]; Homo sapiens, HT-29, HT29, with 2 μM ceralasertib, first assay
  pIC50: 8.62
[1]; Homo sapiens, HT-29, HT29, with 2 μM ceralasertib, second assay
  pIC50: 8.91
[1]; Homo sapiens, HT-29, HT29, with 5000 nM palbociclib (2 h pretreatment), 72 h
  pIC50: 7.50
[2]; H460 (wild-type p53)
  additive cytotoxic effect in combination therapy with ceralasertib: significant additive cytotoxic effect
[2]; H460 (wild-type p53), all concentrations
  additive cytotoxic effect in combination therapy with palbociclib: did not exhibit any significant additive cytotoxic effects
[2]; [4]
  additive cytotoxic effect in combination therapy with AZD7762: not significant
  additive cytotoxic effect in combination therapy with adavosertib: not significant
  additive cytotoxic effect in combination therapy with ceralasertib: not significant
[2]; H460 (wild-type p53), medium and high concentrations
  additive cytotoxic effect in combination therapy with AZD7762: certain additive cytotoxic effects
[2]; H460 (wild-type p53), medium or high concentration
  additive cytotoxic effect in combination therapy with ceralasertib: certain additive cytotoxic effects
[2]; H460 (wild-type p53), medium or high concentrations
  additive cytotoxic effect in combination therapy with adavosertib: certain additive cytotoxic effects
[2]; H460, 0.15 μM ceralasertib, first assay
  Ratio combo/single: 6.67
[2]; H460, 0.15 μM ceralasertib, second assay
  Ratio combo/single: 4.00
[2]; H460, 0.44 μM ceralasertib, first assay
  Ratio combo/single: 20.00
[2]; H460, 0.44 μM ceralasertib, second assay
  Ratio combo/single: 24.00
[2]; H460, 1.3 μM ceralasertib, first assay
  Ratio combo/single: 13.33
[2]; H460, 1.3 μM ceralasertib, second assay
  Ratio combo/single: 12.00
[2]; H460, IC50 monotherapy / IC50 with 0.5 nM AZD7762
  Ratio single/combo: 1.03
[2]; H460, IC50 monotherapy / IC50 with 0.5 nM adavosertib
  Ratio single/combo: 1.10
[2]; H460, IC50 monotherapy / IC50 with 6.4 nM AZD7762
  Ratio single/combo: 0.73
[2]; H460, IC50 monotherapy / IC50 with 6.4 nM adavosertib
  Ratio single/combo: 1.26
[2]; H460, IC50 monotherapy / IC50 with 160 nM AZD7762
  Ratio single/combo: 2.13
[2]; H460, IC50 monotherapy / IC50 with 160 nM adavosertib
  Ratio single/combo: 1.79
[2]; H460, IC50 monotherapy / IC50 with 800 nM adavosertib
  Ratio single/combo: 2.27
[2]; H460, IC50 with 0.05 nM palbociclib / IC50 monotherapy
  Ratio combo/single: 1.12
[2]; H460, IC50 with 0.64 nM palbociclib / IC50 monotherapy
  Ratio combo/single: 1.12
[2]; H460, IC50 with 400 nM palbociclib / IC50 monotherapy
  Ratio combo/single: 1.24
[2]; NCI-H460, 72 h, H460, monotherapy, 72 h
  pIC50: 9.47
[2]; NCI-H460, H460, monotherapy, first assay
  pIC50: 9.40
[2]; NCI-H460, H460, monotherapy, second assay
  pIC50: 9.62
[2]; NCI-H460, H460, with 0.05 nM palbociclib (2 h pretreatment), 72 h
  pIC50: 9.42
[2]; NCI-H460, H460, with 0.5 nM AZD7762 (2 h pretreatment), 72 h
  pIC50: 9.48
[2]; NCI-H460, H460, with 0.5 nM adavosertib (2 h pretreatment), 72 h
  pIC50: 9.51
[2]; NCI-H460, H460, with 0.64 nM palbociclib (2 h pretreatment), 72 h
  pIC50: 9.42
[2]; NCI-H460, H460, with 6.4 nM AZD7762 (2 h pretreatment), 72 h
  pIC50: 9.33
[2]; NCI-H460, H460, with 6.4 nM adavosertib (2 h pretreatment), 72 h
  pIC50: 9.57
[2]; NCI-H460, H460, with 0.15 μM ceralasertib, first assay
  pIC50: 10.22
[2]; NCI-H460, H460, with 0.15 μM ceralasertib, second assay
  pIC50: 10.22
[2]; NCI-H460, H460, with 160 nM AZD7762 (2 h pretreatment), 72 h
  pIC50: 9.80
[2]; NCI-H460, H460, with 160 nM adavosertib (2 h pretreatment), 72 h
  pIC50: 9.72
[2]; NCI-H460, H460, with 400 nM palbociclib (2 h pretreatment), 72 h
  pIC50: 9.38
[2]; NCI-H460, H460, with 0.44 μM ceralasertib, first assay
  pIC50: 10.70
[2]; NCI-H460, H460, with 0.44 μM ceralasertib, second assay
  pIC50: 11.00
[2]; NCI-H460, H460, with 800 nM adavosertib (2 h pretreatment), 72 h
  pIC50: 9.82
[2]; NCI-H460, H460, with 1.3 μM ceralasertib, first assay
  pIC50: 10.52
[2]; NCI-H460, H460, with 1.3 μM ceralasertib, second assay
  pIC50: 10.70
